# PubChem BioAssay AID328 (DTP/NCI, 2004)
# Values joined by “and” are separate entries in the source; they are usually repeats but may differ in a detail not shown here. Equal values may be shown once. Toxic doses and inconclusive results are not listed.
# System: BDF1 mice, P388 leukemia ip, median survival T/C
# Assay: NCI In Vivo Anticancer Drug Screen. Data for tumor model P388 Leukemia (intraperitoneal) in B6D2F1 (BDF1) mice
# Settings: endpoint: median survival time, higher = longer survival
# In short: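 Compound-treated tumour-bearing mice were compared with vehicle-treated controls. Survival was recorded, and the value is the treated-group measurement divided by the control-group measurement (T/C).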
# [1] = dose: 12.5 mg/kg/injection, schedule: Q01DX009 (ip), vehicle: Klucel (hydroxypropylcellulose) (HPC)
# [2] = dose: 25.0 mg/kg/injection, schedule: Q01DX009 (ip), vehicle: Klucel (hydroxypropylcellulose) (HPC)
# [3] = dose: 50.0 mg/kg/injection, schedule: Q01DX009 (ip), vehicle: Klucel (hydroxypropylcellulose) (HPC)
# [4] = dose: 50.0 mg/kg/injection, schedule: Q04DX003 (ip), vehicle: saline with Tween-80
# [5] = dose: 100.0 mg/kg/injection, schedule: Q04DX003 (ip), vehicle: saline with Tween-80
# [6] = dose: 200.0 mg/kg/injection, schedule: Q04DX003 (ip), vehicle: saline with Tween-80
# [7] = dose: 400.0 mg/kg/injection, schedule: Q04DX003 (ip), vehicle: saline with Tween-80
# [8] = dose: 25.0 mg/kg/injection, schedule: Q04DX003 (ip), vehicle: saline
# [9] = dose: 50.0 mg/kg/injection, schedule: Q04DX003 (ip), vehicle: saline
# [10] = dose: 100.0 mg/kg/injection, schedule: Q04DX003 (ip), vehicle: saline
# [11] = dose: 12.5 mg/kg/injection, schedule: Q01DX009 (ip), vehicle: saline
# [12] = dose: 12.5 mg/kg/injection, schedule: Q04DX003 (ip), vehicle: saline
# [13] = dose: 25.0 mg/kg/injection, schedule: Q01DX009 (ip), vehicle: saline
# [14] = dose: 100.0 mg/kg/injection, schedule: Q01DX009 (ip), vehicle: saline with Tween-80
# [15] = dose: 200.0 mg/kg/injection, schedule: Q01DX009 (ip), vehicle: saline with Tween-80
# [16] = dose: 100.0 mg/kg/injection, schedule: Q04DX003 (ip), vehicle: Klucel (hydroxypropylcellulose) (HPC)
# [17] = dose: 200.0 mg/kg/injection, schedule: Q04DX003 (ip), vehicle: Klucel (hydroxypropylcellulose) (HPC)
# [18] = dose: 50.0 mg/kg/injection, schedule: Q01DX009 (ip), vehicle: saline with Tween-80
# [19] = dose: 400.0 mg/kg/injection, schedule: Q01DX009 (ip), vehicle: saline with Tween-80
compound,measurement,setting,value
O=C(NNc1ccccc1)OCc1ccccc1,T/C,[1],100 % of control
same,T/C,[2],115 % of control
same,T/C,[3],110 % of control
same,T/C,"dose: 75.0 mg/kg/injection, schedule: Q04DX003 (ip), vehicle: Klucel (hydroxypropylcellulose) (HPC)",95 % of control
same,T/C,"dose: 150.0 mg/kg/injection, schedule: Q04DX003 (ip), vehicle: Klucel (hydroxypropylcellulose) (HPC)",100 % of control
same,T/C,"dose: 300.0 mg/kg/injection, schedule: Q04DX003 (ip), vehicle: Klucel (hydroxypropylcellulose) (HPC)",90 % of control
NC(=O)c1cc(Cl)nc2nc(Cl)nc(N)c12,T/C,[4],105 % of control
same,T/C,[5],104 % of control and 109 % of control
same,T/C,[6],116 % of control and 117 % of control
same,T/C,[7],116 % of control and 122 % of control
Cc1cc(Cl)ccc1NC(=O)c1ccc(Cl)cc1,T/C,"dose: 75.0 mg/kg/injection, schedule: Q01DX009 (ip), vehicle: Klucel (hydroxypropylcellulose) (HPC)",113 % of control
same,T/C,"dose: 150.0 mg/kg/injection, schedule: Q01DX009 (ip), vehicle: Klucel (hydroxypropylcellulose) (HPC)",95 % of control
same,T/C,"dose: 300.0 mg/kg/injection, schedule: Q01DX009 (ip), vehicle: Klucel (hydroxypropylcellulose) (HPC)",100 % of control
CCc1ccc(NC(=O)c2ccccc2C(=O)O)cc1,T/C,[5],122 % of control
same,T/C,[6],104 % of control
same,T/C,[7],109 % of control
CN1CCC(=C(C#N)C#N)CC1,T/C,[8],95 % of control
same,T/C,[9],100 % of control
same,T/C,[10],100 % of control
O=C1c2ccccc2C(=O)C1(Cl)C(Cl)c1ccc([N+](=O)[O-])cc1 (stereo not drawn),T/C,"dose: 100.0 mg/kg/injection, schedule: Q01DX009 (ip), vehicle: Klucel (hydroxypropylcellulose) (HPC)",105 % of control
same,T/C,"dose: 200.0 mg/kg/injection, schedule: Q01DX009 (ip), vehicle: Klucel (hydroxypropylcellulose) (HPC)",90 % of control
same,T/C,"dose: 400.0 mg/kg/injection, schedule: Q01DX009 (ip), vehicle: Klucel (hydroxypropylcellulose) (HPC)",100 % of control
COc1cc2c3c(c1)C(O)CC[N+]3(C)CCC2 (stereo not drawn),T/C,[11],100 % of control
same,T/C,[12],109 % of control
same,T/C,[13],110 % of control
same,T/C,[8],109 % of control
same,T/C,"dose: 50.0 mg/kg/injection, schedule: Q01DX009 (ip), vehicle: saline",100 % of control
same,T/C,[9],109 % of control
CC(C)(C)OC(=O)NC(Cc1cncn1Cc1ccccc1)C(=O)NC(Cc1c[nH]c2ccccc12)C(=O)OCc1ccccc1 (stereo not drawn),T/C,[9],105 % of control
same,T/C,[10],106 % of control
same,T/C,"dose: 200.0 mg/kg/injection, schedule: Q04DX003 (ip), vehicle: saline",102 % of control
same,T/C,"dose: 400.0 mg/kg/injection, schedule: Q04DX003 (ip), vehicle: saline",100 % of control
O=C1c2ccccc2C(=O)N1CN1C(=O)c2ccccc2C1=O,T/C,[4],95 % of control
same,T/C,[5],90 % of control
same,T/C,[6],86 % of control
Cc1ccc(C)c(C(=O)CCC(=O)O)c1,T/C,"dose: 12.5 mg/kg/injection, schedule: Q01DX009 (ip), vehicle: saline with Tween-80",108 % of control
same,T/C,"dose: 25.0 mg/kg/injection, schedule: Q01DX009 (ip), vehicle: saline with Tween-80",110 % of control
same,T/C,[14],91 % of control
same,T/C,[15],99 % of control
same,T/C,[6],91 % of control
same,T/C,[7],100 % of control
CCN(c1ccccc1)c1ccc(C=O)cc1,T/C,[16],94 % of control
same,T/C,[17],100 % of control
CNC(=S)NNC(=O)C1CC1,T/C,"dose: 50.0 mg/kg/injection, schedule: Q01DX005 (ip), vehicle: saline",94 % of control
same,T/C,"dose: 100.0 mg/kg/injection, schedule: Q01DX005 (ip), vehicle: saline",107 % of control
same,T/C,"dose: 200.0 mg/kg/injection, schedule: Q01DX005 (ip), vehicle: saline",94 % of control
CCOC(=O)C(=CN(C)c1ccc([N+](=O)[O-])cc1)C(=O)OCC,T/C,"dose: 50.0 mg/kg/injection, schedule: Q01DX009 (ip), vehicle: other",100 % of control
same,T/C,"dose: 100.0 mg/kg/injection, schedule: Q01DX009 (ip), vehicle: other",103 % of control
same,T/C,"dose: 200.0 mg/kg/injection, schedule: Q01DX009 (ip), vehicle: other",109 % of control
O=c1[nH]cnc2c(Cl)c(C(Cl)(Cl)Cl)nn12 (tested in a mixture with another compound),T/C,[18],99 % of control
same,T/C,[14],90 % of control and 103 % of control
same,T/C,[5],111 % of control
same,T/C,[15],99 % of control and 114 % of control
same,T/C,[6],104 % of control
same,T/C,[19],93 % of control and 112 % of control
same,T/C,[7],102 % of control
CCSc1nc2ccc(Nn3nnnc3-c3ccccc3)cc2s1,T/C,[1],272 % of control
same,T/C,[2],98 % of control
same,T/C,[3],118 % of control
O=S(=O)(O)O.[O]=[V],T/C,"dose: 3.12 mg/kg/injection, schedule: Q01DX009 (ip), vehicle: saline",89 % of control
same,T/C,"dose: 6.25 mg/kg/injection, schedule: Q01DX009 (ip), vehicle: saline",92 % of control
same,T/C,"dose: 8.75 mg/kg/injection, schedule: Q01DX001 (ip), vehicle: saline",95 % of control
same,T/C,[11],100 % of control
same,T/C,[12],92 % of control and 100 % of control
same,T/C,"dose: 17.5 mg/kg/injection, schedule: Q01DX001 (ip), vehicle: saline",100 % of control
same,T/C,[13],100 % of control
same,T/C,[8],95 % of control
same,T/C,"dose: 35.0 mg/kg/injection, schedule: Q01DX001 (ip), vehicle: saline",100 % of control
same,T/C,"dose: 50.0 mg/kg/injection, schedule: Q01DX001 (ip), vehicle: saline",90 % of control
same,T/C,[9],89 % of control
O=C(O)CCCc1ccc(Oc2ccccc2)cc1,T/C,"dose: 100.0 mg/kg/injection, schedule: Q04DX003 (ip), vehicle: other",92 % of control
same,T/C,"dose: 200.0 mg/kg/injection, schedule: Q04DX003 (ip), vehicle: other",93 % of control
same,T/C,"dose: 400.0 mg/kg/injection, schedule: Q04DX003 (ip), vehicle: other",86 % of control
COc1cc(C2c3cc4c(cc3C(O)C(CO)C2CO)OCO4)cc(OC)c1OC (stereo not drawn),T/C,"dose: 17.5 mg/kg/injection, schedule: Q01DX009 (ip), vehicle: Klucel (hydroxypropylcellulose) (HPC)",176 % of control
same,T/C,"dose: 35.0 mg/kg/injection, schedule: Q01DX009 (ip), vehicle: Klucel (hydroxypropylcellulose) (HPC)",209 % of control
same,T/C,"dose: 37.5 mg/kg/injection, schedule: Q04DX003 (ip), vehicle: saline sonified",109 % of control
same,T/C,"dose: 44.0 mg/kg/injection, schedule: Q01DX009 (ip), vehicle: saline with Tween-80",150 % of control
same,T/C,"dose: 44.0 mg/kg/injection, schedule: Q04DX003 (ip), vehicle: saline sonified",100 % of control
same,T/C,"dose: 66.0 mg/kg/injection, schedule: Q01DX009 (ip), vehicle: saline with Tween-80",150 % of control
same,T/C,"dose: 66.0 mg/kg/injection, schedule: Q04DX003 (ip), vehicle: saline sonified",105 % of control
same,T/C,"dose: 70.0 mg/kg/injection, schedule: Q01DX009 (ip), vehicle: Klucel (hydroxypropylcellulose) (HPC)",228 % of control and 159 % of control
same,T/C,"dose: 75.0 mg/kg/injection, schedule: Q04DX003 (ip), vehicle: saline sonified",122 % of control
same,T/C,[14],209 % of control
same,T/C,"dose: 100.0 mg/kg/injection, schedule: Q04DX003 (ip), vehicle: saline sonified",110 % of control
same,T/C,[5],160 % of control and 183 % of control
same,T/C,"dose: 140.0 mg/kg/injection, schedule: Q01DX009 (ip), vehicle: Klucel (hydroxypropylcellulose) (HPC)",172 % of control
same,T/C,"dose: 150.0 mg/kg/injection, schedule: Q01DX009 (ip), vehicle: saline with Tween-80",159 % of control
same,T/C,"dose: 150.0 mg/kg/injection, schedule: Q04DX003 (ip), vehicle: saline sonified",110 % of control
same,T/C,"dose: 150.0 mg/kg/injection, schedule: Q04DX003 (ip), vehicle: saline with Tween-80",160 % of control
same,T/C,[6],172 % of control and 191 % of control
same,T/C,"dose: 225.0 mg/kg/injection, schedule: Q04DX003 (ip), vehicle: saline with Tween-80",190 % of control
same,T/C,"dose: 300.0 mg/kg/injection, schedule: Q04DX003 (ip), vehicle: saline sonified",200 % of control
same,T/C,[7],200 % of control and 204 % of control
CCCOC(=O)C1(N)CCCC1,T/C,[14],100 % of control
same,T/C,[15],90 % of control
CCCCCCCCCCC[CH2][Hg][CH2]CCCCCCCCCCC,T/C,[16],91 % of control
same,T/C,[17],100 % of control
CCCCCCNC(=S)/N=C(\N)n1nc(C)cc1C,T/C,[18],109 % of control
same,T/C,[14],99 % of control
same,T/C,[15],112 % of control
Nc1nc(N)c(N=O)c(Nc2ccc(Br)cc2)n1,T/C,[14],104 % of control
same,T/C,[15],113 % of control
same,T/C,[19],95 % of control
